“And” between values parts separate entries of the source, which are not always exact repeats. Identical values can stand only once.
System: custom murine 40-gene Precision Profile for Rheumatoid Arthritis, whole blood
Assay: KRN (K/BxN) serum transfer induced arthritis model, whole blood gene expression by QPCR, vehicle or dexamethasone treatment
Format: in vivo, female BALB/c mice
Settings: for ABCA1_M Normalized CT Value (Delta CT) / APAF1_M Normalized CT Value (Delta CT) / ARG2_M Normalized CT Value (Delta CT) / CASP1_M Normalized CT Value (Delta CT) / CASP3_M Normalized CT Value (Delta CT) / CCR3_M Normalized CT Value (Delta CT) / CD3Z_M Normalized CT Value (Delta CT) / CD8A_M Normalized CT Value (Delta CT) / CD14_M Normalized CT Value (Delta CT) / CD19_M Normalized CT Value (Delta CT) / CD86_M Normalized CT Value (Delta CT) / CSPG2_M Normalized CT Value (Delta CT) / F3_M Normalized CT Value (Delta CT) / HMOX1_M Normalized CT Value (Delta CT) / HSPA1A—M Normalized CT Value (Delta CT) / ICAM1—M Normalized CT Value (Delta CT) / IFI16—M Normalized CT Value (Delta CT) / IL1B_M Normalized CT Value (Delta CT) / IL10_M Normalized CT Value (Delta CT): whole blood
Protocol: Whole blood gene expression changes were evaluated in vehicle control and drug-treated murine subjects across two murine models of arthritis according to the following arthritis models:
KRN Transgenic Mouse (K/B×N): K/B×N serum from transgenic mouse used to induce arthritis in female BALB/c mice (n=54). Collagen Induced Arthritis (CIA): Bovine type II collagen used to induce arthritis in male DBA/1 mice (n=54).
In addition, naïve, untreated animal groups at baseline and terminal day were included to control for potential age-related changes in gene expression over the extended study periods. Animal groups, time-points, and treatment schedules are summarized in Tables 20A and 20B, respectively.
Whole blood samples from animals were collected by retro-orbital bleed at selected time-points in accordance with the arthritis study schemas described in […], and transferred into sample collection tubes containing a 1.5× lysis solution and RPMI. Samples were processed into total RNA and cDNA. […] It was anticipated from these murine models would provide a better understanding of the relevant molecular response of arthritis induction and their potential correlation to the human disease condition.
Normal murine subject reference values (represented as normalized Ct or ΔCt values) were established for male DBA/1 mice (n=6 for the CIA study arm) and female BALB/c mice (n=6 for the KRN study arm). In both arms of the study, gene expression response of normal (naïve, non-immunized and untreated) murine subjects were evaluated in groups of 6 each at day 0 and day 60 for the CIA study arm, and at day 0 and day 21 for the KRN study arm (see Tables 20A and 20B).
Gene expression responses for the arthritis-induced murine model were evaluated for untreated mice at day 3 and vehicle-treated mice at days 7, 14 and 21 to characterize disease progression.

[1] = KRN Day 14, Dex-treated, individual murine subject
[2] = KRN Day 14, Dex-treated, individual murine subject, listed as Dex
[3] = KRN Day 14 Dex, individual mouse, listed as Dex
[4] = KRN Day 21, Dex-treated, group Average
[5] = KRN Day 21, Dex-treated, individual murine subject, listed as Dex
[6] = KRN Day 21 Dex, individual mouse, listed as Dex

For `C[C@@H]1C[C@H]2[C@@H]3CCC4=CC(=O)C=C[C@]4(C)[C@@]3(F)[C@@H](O)C[C@]2(C)[C@@]1(O)C(=O)CO` [Dexamethasone], the “Normalized CT Value (Delta CT) TLR4_M” value [1] was 18.49, the “Normalized CT Value (Delta CT) TNFSF5—M” value [1] was 19.61 and the “Normalized CT Value (Delta CT) TNF_M” value [1] was 20.58. The “Normalized CT Value (Delta CT) VEGF_M” value [1] was 20.76, the “Normalized CT Value (Delta CT) IL1RAP_M” value [2] was 18.49 and 19.00 and 18.48 and 18.13 and 18.59 and 18.81 and the “Normalized CT Value (Delta CT) IL1RN—M” value [2] was 17.70 and 17.88 and 17.80 and 17.59 and 17.72 and 17.52. The “Normalized CT Value (Delta CT) IL6_M” value [2] was 25.39 and 25.69 and 25.54 and 25.34 and 25.89 and 25.05, the “Normalized CT Value (Delta CT) JUN_M” value [2] was 19.76 and 19.88 and 19.77 and 19.35 and 19.58 and 19.68 and the “Normalized CT Value (Delta CT) MEF2C—M” value [2] was 20.59 and 19.97 and 20.74 and 19.83 and 20.88 and 19.95. The “Normalized CT Value (Delta CT) MMP9—M” value [2] was 14.51 and 14.33 and 14.28 and 14.07 and 14.70 and 14.83, the “Normalized CT Value (Delta CT) NFKB1—M” value [2] was 17.37 (2×) and 17.12 and 17.30 and 16.77 and 17.79 and the “Normalized CT Value (Delta CT) PADI4—M” value [2] was 18.74 and 18.78 and 18.81 and 18.39 and 18.98 and 19.03. The “Normalized CT Value (Delta CT) PLA2G7—M” value [2] was 15.31 and 15.29 and 15.04 and 14.93 and 15.33 and 15.36, the “ABCA1_M Normalized CT Value (Delta CT)” value (KRN Day 14 Dex, group Average) was 18.74 and the “APAF1_M Normalized CT Value (Delta CT)” value (KRN Day 14 Dex, group Average) was 19.47. The “ARG2_M Normalized CT Value (Delta CT)” value (KRN Day 14 Dex, group Average) was 17.37, the “CASP1_M Normalized CT Value (Delta CT)” value (KRN Day 14 Dex, group Average) was 19.02 and the “CASP3_M Normalized CT Value (Delta CT)” value (KRN Day 14 Dex, group Average) was 17.77. For the same compound, the “CCR3_M Normalized CT Value (Delta CT)” value (KRN Day 14 Dex, group Average) was 19.21, the “CD3Z_M Normalized CT Value (Delta CT)” value (KRN Day 14 Dex, group Average) was 17.27 and the “CD8A_M Normalized CT Value (Delta CT)” value (KRN Day 14 Dex, group Average) was 18.32. For the same compound, the “CD14_M Normalized CT Value (Delta CT)” value (KRN Day 14 Dex, group Average) was 19.94, the “CD19_M Normalized CT Value (Delta CT)” value (KRN Day 14 Dex, group Average) was 17.52 and the “CD86_M Normalized CT Value (Delta CT)” value (KRN Day 14 Dex, group Average) was 23.30. The “CSPG2_M Normalized CT Value (Delta CT)” value (KRN Day 14 Dex, group Average) was 20.94, the “F3_M Normalized CT Value (Delta CT)” value (KRN Day 14 Dex, group Average) was 23.16 and the “HMOX1_M Normalized CT Value (Delta CT)” value (KRN Day 14 Dex, group Average) was 18.18. The “HSPA1A—M Normalized CT Value (Delta CT)” value (KRN Day 14 Dex, group Average) was 21.59, the “ICAM1—M Normalized CT Value (Delta CT)” value (KRN Day 14 Dex, group Average) was 19.42 and the “IFI16—M Normalized CT Value (Delta CT)” value (KRN Day 14 Dex, group Average) was 17.45. The “IL1B_M Normalized CT Value (Delta CT)” value (KRN Day 14 Dex, group Average) was 14.29, the “IL10_M Normalized CT Value (Delta CT)” value (KRN Day 14 Dex, group Average) was 25.56 and the “ABCA1_M Normalized CT Value (Delta CT)” value [3] was 18.85 and 18.64 and 18.31 and 18.46 and 19.46 and 18.75. For the same compound, the “APAF1_M Normalized CT Value (Delta CT)” value [3] was 19.78 and 19.62 and 19.16 and 19.37 and 19.43, the “ARG2_M Normalized CT Value (Delta CT)” value [3] was 17.30 and 17.84 and 17.05 and 16.89 and 17.70 and 17.43 and the “CASP1_M Normalized CT Value (Delta CT)” value [3] was 19.00 and 18.87 and 18.99 and 19.15 and 19.23 and 18.90. For the same compound, the “CASP3_M Normalized CT Value (Delta CT)” value [3] was 17.98 and 17.63 and 17.87 and 17.16 and 17.93 and 18.06, the “CCR3_M Normalized CT Value (Delta CT)” value [3] was 19.56 and 18.34 and 19.23 and 18.45 and 19.90 and 19.79 and the “CD3Z_M Normalized CT Value (Delta CT)” value [3] was 17.27 and 17.38 and 17.23 and 16.92 and 18.16 and 16.68. For the same compound, the “CD8A_M Normalized CT Value (Delta CT)” value [3] was 18.76 and 18.05 and 18.11 and 17.83 and 19.21 and 17.94, the “CD14_M Normalized CT Value (Delta CT)” value [3] was 19.50 and 20.04 and 19.93 and 20.22 and 19.63 and 20.29 and the “CD19_M Normalized CT Value (Delta CT)” value [3] was 17.84 and 17.32 (2×) and 18.33 and 17.39. The “CD86_M Normalized CT Value (Delta CT)” value [3] was 23.63 and 23.21 and 23.28 and 22.53 and 23.60 and 23.56, the “CSPG2_M Normalized CT Value (Delta CT)” value [3] was 21.74 and 21.15 and 20.43 and 21.79 and 19.79 and 20.71 and the “F3_M Normalized CT Value (Delta CT)” value [3] was 22.18 and 23.66 and 21.85 and 24.55 and 21.66 and 25.05. The “HMOX1_M Normalized CT Value (Delta CT)” value [3] was 17.83 and 18.22 and 17.82 and 18.09 and 18.31 and 18.81, the “HSPA1A—M Normalized CT Value (Delta CT)” value [3] was 21.44 and 22.20 and 21.91 and 21.55 and 20.95 and 21.51 and the “ICAM1—M Normalized CT Value (Delta CT)” value [3] was 19.58 and 19.31 and 19.39 and 19.05 and 19.89 and 19.28. The “IFI16—M Normalized CT Value (Delta CT)” value [3] was 17.64 and 17.26 and 17.87 and 16.81 and 18.04 and 17.08, the “IL1B_M Normalized CT Value (Delta CT)” value [3] was 14.31 and 14.48 (2×) and 14.19 and 14.00 and 14.25 and the “IL10_M Normalized CT Value (Delta CT)” value [3] was 25.62 and 25.82 and 25.58 and 25.54 and 25.73 and 25.10. The “Normalized CT Value (Delta CT) IL1RAP_M” value [4] was 19.02, the “Normalized CT Value (Delta CT) IL1RN—M” value [4] was 18.13 and the “Normalized CT Value (Delta CT) IL6_M” value [4] was 25.28. For the same compound, the “Normalized CT Value (Delta CT) JUN_M” value [4] was 20.06, the “Normalized CT Value (Delta CT) MEF2C—M” value [4] was 20.90 and the “Normalized CT Value (Delta CT) MMP9—M” value [4] was 15.04. The “Normalized CT Value (Delta CT) NFKB1—M” value [4] was 17.69, the “Normalized CT Value (Delta CT) PADI4—M” value [4] was 18.92 and the “Normalized CT Value (Delta CT) PLA2G7—M” value [4] was 15.50. For the same compound, the “Normalized CT Value (Delta CT) IL1RAP_M” value [5] was 19.08 and 19.03 and 18.86 and 19.29 and 18.97 and 18.89, the “Normalized CT Value (Delta CT) IL1RN—M” value [5] was 17.95 (2×) and 18.43 and 17.84 and 18.46 and 18.15 and the “Normalized CT Value (Delta CT) IL6_M” value [5] was 25.40 and 25.42 and 24.75 and 25.06 and 25.35 and 25.72. The “Normalized CT Value (Delta CT) JUN_M” value [5] was 20.06 and 20.45 and 20.53 and 19.72 and 19.52, the “Normalized CT Value (Delta CT) MEF2C—M” value [5] was 21.26 (2×) and 20.26 and 21.57 and 20.41 and 20.64 and the “Normalized CT Value (Delta CT) MMP9—M” value [5] was 15.23 and 14.73 and 15.36 and 15.08 and 14.79. The “Normalized CT Value (Delta CT) NFKB1—M” value [5] was 17.74 and 18.12 and 17.25 and 18.27 and 17.28 and 17.46, the “Normalized CT Value (Delta CT) PADI4—M” value [5] was 19.00 and 18.36 and 19.37 and 18.97 and 19.13 and 18.69 and the “Normalized CT Value (Delta CT) PLA2G7—M” value [5] was 15.27 and 15.70 and 15.34 and 15.67 and 15.86 and 15.15. The “ABCA1_M Normalized CT Value (Delta CT)” value (KRN Day 21 Dex, group Average) was 19.00, the “APAF1_M Normalized CT Value (Delta CT)” value (KRN Day 21 Dex, group Average) was 19.85 and the “ARG2_M Normalized CT Value (Delta CT)” value (KRN Day 21 Dex, group Average) was 17.59. The “CASP1_M Normalized CT Value (Delta CT)” value (KRN Day 21 Dex, group Average) was 19.48, the “CASP3_M Normalized CT Value (Delta CT)” value (KRN Day 21 Dex, group Average) was 18.35 and the “CCR3_M Normalized CT Value (Delta CT)” value (KRN Day 21 Dex, group Average) was 19.66. The “CD3Z_M Normalized CT Value (Delta CT)” value (KRN Day 21 Dex, group Average) was 17.38, the “CD14_M Normalized CT Value (Delta CT)” value (KRN Day 21 Dex, group Average) was 20.44 and the “CD19_M Normalized CT Value (Delta CT)” value (KRN Day 21 Dex, group Average) was 17.72. For the same compound, the “CD86_M Normalized CT Value (Delta CT)” value (KRN Day 21 Dex, group Average) was 23.73, the “ABCA1_M Normalized CT Value (Delta CT)” value [6] was 19.52 and 19.29 and 18.57 and 19.09 and 18.61 and 18.92 and the “APAF1_M Normalized CT Value (Delta CT)” value [6] was 19.76 and 19.88 and 19.81 and 20.29 and 19.46 and 19.93. The “ARG2_M Normalized CT Value (Delta CT)” value [6] was 17.45 and 17.78 and 17.56 and 17.29 and 18.09 and 17.36, the “CASP1_M Normalized CT Value (Delta CT)” value [6] was 19.34 and 19.90 and 19.57 and 19.28 and 19.50 and 19.31 and the “CASP3_M Normalized CT Value (Delta CT)” value [6] was 18.21 and 18.52 (2×) and 18.24 and 18.02 and 18.60. The “CCR3_M Normalized CT Value (Delta CT)” value [6] was 19.82 and 19.72 and 19.20 and 19.52 and 20.10 and 19.60, the “CD3Z_M Normalized CT Value (Delta CT)” value [6] was 17.32 and 17.40 and 17.14 and 17.66 and 17.04 and 17.71 and the “CD14_M Normalized CT Value (Delta CT)” value [6] was 20.25 and 21.24 and 20.59 and 20.09 and 20.44 and 20.03. For the same compound, the “CD19_M Normalized CT Value (Delta CT)” value [6] was 18.44 and 17.98 and 17.64 and 18.11 and the “CD86_M Normalized CT Value (Delta CT)” value [6] was 23.89 and 23.61 and 23.63 and 24.02 and 23.14 and 24.11.
